From ChEMBL document CHEMBL1201862, “PubChem BioAssay data set” (2004)
Activity calls are given as the source filed them.

Experiments:
[1] = nonselective inhibitors of cellular cAMP signaling, dose response, counter-screen for MC4R biased antagonist project, cell-based, TR-FRET cAMP detection (AID 602305); type: functional;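 note: U2OS cells stimulated with forskolin near its EC80 as the cAMP inducer; potency is for inhibition of forskolin-stimulated cAMP signaling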
Melanocortin receptor 4 = Melanocortin receptor 4 (Homo sapiens, UniProt P32245); assay: MC4R antagonist potency on cAMP, dose response, cell-based, TR-FRET, biased antagonists (AID 602298); type: functional;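 note: antagonist potency against agonist-stimulated cAMP production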
[2] = target: T1, High affinity choline transporter 1 (Homo sapiens, UniProt Q9GZV3); assay: CHT activators, dose response, cell-based, 10-point CRC, membrane potential dye (AID 602376); type: functional
T1 sequence (Q9GZV3 whole entry): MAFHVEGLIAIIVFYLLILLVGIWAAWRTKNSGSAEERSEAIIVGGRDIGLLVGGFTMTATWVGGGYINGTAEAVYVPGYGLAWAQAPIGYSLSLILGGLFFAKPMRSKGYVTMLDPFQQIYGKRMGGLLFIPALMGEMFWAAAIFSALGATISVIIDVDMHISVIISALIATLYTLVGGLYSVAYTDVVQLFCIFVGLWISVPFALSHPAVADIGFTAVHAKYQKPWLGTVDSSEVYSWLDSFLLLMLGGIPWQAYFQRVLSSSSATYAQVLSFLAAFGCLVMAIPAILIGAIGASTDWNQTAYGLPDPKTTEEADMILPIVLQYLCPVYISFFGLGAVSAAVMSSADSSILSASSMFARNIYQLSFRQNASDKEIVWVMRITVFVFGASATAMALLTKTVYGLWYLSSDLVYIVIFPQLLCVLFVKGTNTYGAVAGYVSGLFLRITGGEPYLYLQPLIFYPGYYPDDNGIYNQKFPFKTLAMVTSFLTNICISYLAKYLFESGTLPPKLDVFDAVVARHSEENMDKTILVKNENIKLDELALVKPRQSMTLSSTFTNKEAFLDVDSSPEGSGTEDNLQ

Erythrocyte = assay: FACS-based assay to assess parasite growth inhibition 96 hr Measured in Cell-Based System Using Flow Cytometry - 2126-05_Inhibitor_Dose_DryPowder_Activity. [Related pubchem assays (depositor defined):AID488774]; type: functional; conditions: Homo sapiens
[3] = A cell-based HTS for delayed death inhibitors of the malarial parasite plastid Measured in Microorganism System Using Plate Reader - 2126-01_Inhibitor_Dose_DryPowder_Activity.; type: functional, organism-based
[4] = FACS-based assay to assess parasite growth inhibition 48 hr Measured in Cell-Based System Using Flow Cytometry - 2126-03_Inhibitor_Dose_DryPowder_Activity. [Related pubchem assays (depositor defined):AID488774]; type: functional; conditions: Homo sapiens
[5] = A cell-based HTS for delayed death inhibitors of the malarial parasite plastid Measured in Microorganism System Using Plate Reader - 2126-02_Inhibitor_Dose_DryPowder_Activity.; type: functional, organism-based
[6] = target: Cyclin-dependent kinase 9 (Homo sapiens, UniProt P50750); type: functional;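 note: value from the CDK9 entry of a kinome-spanning kinase panel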
[7] = target: Dual specificity protein kinase CLK4 (Homo sapiens, UniProt Q9HAZ1); type: functional
[8] = target: Serine/threonine-protein kinase Chk1 (Homo sapiens, UniProt O14757); type: functional;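 note: measured as one member of a kinome-wide kinase profiling panel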
[9] = target: Hepatocyte growth factor receptor (Homo sapiens, UniProt P08581); type: functional;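 note: kinase panel profiling across the kinome, with MET as the panel member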
[10] = target: cAMP-dependent protein kinase catalytic subunit PRKX (Homo sapiens, UniProt P51817); type: functional
[11] = target: Leukocyte tyrosine kinase receptor (Homo sapiens, UniProt P29376); assay: Navigating the Kinome. Panel member name: LTK; type: functional
[12] = target: Leucine-rich repeat serine/threonine-protein kinase 2 (Homo sapiens, UniProt Q5S007); type: functional;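 note: value from a broad kinome-wide panel profiling study in which LRRK2 was one of the kinases tested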
Troponin, cardiac muscle = Troponin, cardiac muscle (Homo sapiens, UniProt P19429+P45379+P63316); assay: Fluorescence-based biochemical high throughput dose response assay for activators of the calcium sensitivity of cardiac Regulated Thin Filaments (RTF). [Related pubchem assays (depositor defined):AID493008, AID493018, AID504382, AID504383]; type: protein-complex assay
Mucolipin-3 = target: T2, Mucolipin-3 (Homo sapiens, UniProt Q8TDD5); assay: Fluorescence counterscreen assay for […] agonists: dose response cell-based high-throughput screening assay to identify agonists of the transient receptor potential channel ML3 (TRPML3). [Related pubchem assays: 1424, 1448 ]; type: functional
T2 sequence (Q8TDD5 whole entry): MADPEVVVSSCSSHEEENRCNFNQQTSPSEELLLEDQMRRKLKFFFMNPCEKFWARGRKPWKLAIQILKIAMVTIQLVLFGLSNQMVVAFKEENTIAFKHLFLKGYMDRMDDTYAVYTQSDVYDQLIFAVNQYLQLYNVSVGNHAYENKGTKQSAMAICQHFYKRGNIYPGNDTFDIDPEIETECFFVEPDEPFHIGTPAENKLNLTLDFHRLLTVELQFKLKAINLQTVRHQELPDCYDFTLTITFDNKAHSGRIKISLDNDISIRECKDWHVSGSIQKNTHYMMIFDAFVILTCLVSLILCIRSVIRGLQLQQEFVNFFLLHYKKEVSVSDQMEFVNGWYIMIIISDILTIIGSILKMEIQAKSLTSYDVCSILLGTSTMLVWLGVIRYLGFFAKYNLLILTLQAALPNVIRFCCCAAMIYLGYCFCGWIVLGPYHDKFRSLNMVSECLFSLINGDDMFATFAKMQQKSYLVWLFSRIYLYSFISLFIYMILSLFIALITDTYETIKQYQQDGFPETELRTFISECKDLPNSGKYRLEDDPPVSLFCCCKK

[13] = target: Multidrug resistance protein CDR2 (Candida albicans (strain SC5314 / ATCC MYA-2876) (Yeast), UniProt P78595); assay: CaCDR2 efflux pump inhibitors in yeast, dose response, S. cerevisiae AD1-8u, singleplex, Cherry Pick1 hits (AID 588604); type: functional
Chain of Multidrug resistance protein CDR2 (P78595 whole entry): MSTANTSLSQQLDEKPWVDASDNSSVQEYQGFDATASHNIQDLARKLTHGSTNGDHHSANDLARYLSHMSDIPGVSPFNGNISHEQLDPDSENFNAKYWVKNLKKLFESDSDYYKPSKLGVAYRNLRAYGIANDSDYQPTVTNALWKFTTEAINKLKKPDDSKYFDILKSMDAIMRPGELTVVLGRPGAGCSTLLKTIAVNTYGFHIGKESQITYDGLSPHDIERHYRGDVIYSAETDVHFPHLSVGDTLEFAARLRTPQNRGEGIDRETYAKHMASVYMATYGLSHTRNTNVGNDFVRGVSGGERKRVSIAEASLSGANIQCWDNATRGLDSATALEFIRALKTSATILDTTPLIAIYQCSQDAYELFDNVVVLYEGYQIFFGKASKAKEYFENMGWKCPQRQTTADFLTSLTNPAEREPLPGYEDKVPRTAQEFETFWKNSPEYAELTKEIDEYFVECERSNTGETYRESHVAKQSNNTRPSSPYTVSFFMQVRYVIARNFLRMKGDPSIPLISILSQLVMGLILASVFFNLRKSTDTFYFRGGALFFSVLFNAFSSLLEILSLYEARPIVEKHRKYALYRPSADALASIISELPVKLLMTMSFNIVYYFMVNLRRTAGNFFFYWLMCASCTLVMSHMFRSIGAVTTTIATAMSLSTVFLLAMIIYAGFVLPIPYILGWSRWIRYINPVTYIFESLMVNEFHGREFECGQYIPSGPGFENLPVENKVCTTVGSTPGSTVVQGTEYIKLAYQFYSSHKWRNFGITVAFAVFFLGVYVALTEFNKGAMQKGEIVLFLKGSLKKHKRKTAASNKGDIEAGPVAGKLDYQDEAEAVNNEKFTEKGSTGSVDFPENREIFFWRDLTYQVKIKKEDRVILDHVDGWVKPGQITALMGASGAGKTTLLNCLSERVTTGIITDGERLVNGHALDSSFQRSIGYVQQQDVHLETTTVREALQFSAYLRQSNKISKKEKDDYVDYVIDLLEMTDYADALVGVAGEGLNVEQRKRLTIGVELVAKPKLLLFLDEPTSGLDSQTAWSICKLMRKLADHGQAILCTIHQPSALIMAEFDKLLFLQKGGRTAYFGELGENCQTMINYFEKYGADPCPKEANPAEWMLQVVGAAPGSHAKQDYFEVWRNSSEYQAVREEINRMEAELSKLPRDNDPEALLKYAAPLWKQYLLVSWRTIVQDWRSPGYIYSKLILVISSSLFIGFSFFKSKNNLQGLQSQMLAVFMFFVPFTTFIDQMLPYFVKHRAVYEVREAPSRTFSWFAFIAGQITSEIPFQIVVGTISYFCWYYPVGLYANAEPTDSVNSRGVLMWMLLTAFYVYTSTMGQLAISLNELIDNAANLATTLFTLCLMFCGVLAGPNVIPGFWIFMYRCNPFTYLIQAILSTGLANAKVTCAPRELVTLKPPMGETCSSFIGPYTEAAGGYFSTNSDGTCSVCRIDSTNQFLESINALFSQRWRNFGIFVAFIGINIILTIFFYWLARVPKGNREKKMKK

Ion channel NompC = Ion channel NompC (Danio rerio, UniProt Q7T1G6); assay: Dose response cell-based high-throughput screening assay for agonists of the transient receptor potential channel N1 (TRPN1). [Related pubchem assays (depositor defined):AID1424, AID1448]; type: functional
Chain of Ion channel NompC (Q7T1G6 whole entry): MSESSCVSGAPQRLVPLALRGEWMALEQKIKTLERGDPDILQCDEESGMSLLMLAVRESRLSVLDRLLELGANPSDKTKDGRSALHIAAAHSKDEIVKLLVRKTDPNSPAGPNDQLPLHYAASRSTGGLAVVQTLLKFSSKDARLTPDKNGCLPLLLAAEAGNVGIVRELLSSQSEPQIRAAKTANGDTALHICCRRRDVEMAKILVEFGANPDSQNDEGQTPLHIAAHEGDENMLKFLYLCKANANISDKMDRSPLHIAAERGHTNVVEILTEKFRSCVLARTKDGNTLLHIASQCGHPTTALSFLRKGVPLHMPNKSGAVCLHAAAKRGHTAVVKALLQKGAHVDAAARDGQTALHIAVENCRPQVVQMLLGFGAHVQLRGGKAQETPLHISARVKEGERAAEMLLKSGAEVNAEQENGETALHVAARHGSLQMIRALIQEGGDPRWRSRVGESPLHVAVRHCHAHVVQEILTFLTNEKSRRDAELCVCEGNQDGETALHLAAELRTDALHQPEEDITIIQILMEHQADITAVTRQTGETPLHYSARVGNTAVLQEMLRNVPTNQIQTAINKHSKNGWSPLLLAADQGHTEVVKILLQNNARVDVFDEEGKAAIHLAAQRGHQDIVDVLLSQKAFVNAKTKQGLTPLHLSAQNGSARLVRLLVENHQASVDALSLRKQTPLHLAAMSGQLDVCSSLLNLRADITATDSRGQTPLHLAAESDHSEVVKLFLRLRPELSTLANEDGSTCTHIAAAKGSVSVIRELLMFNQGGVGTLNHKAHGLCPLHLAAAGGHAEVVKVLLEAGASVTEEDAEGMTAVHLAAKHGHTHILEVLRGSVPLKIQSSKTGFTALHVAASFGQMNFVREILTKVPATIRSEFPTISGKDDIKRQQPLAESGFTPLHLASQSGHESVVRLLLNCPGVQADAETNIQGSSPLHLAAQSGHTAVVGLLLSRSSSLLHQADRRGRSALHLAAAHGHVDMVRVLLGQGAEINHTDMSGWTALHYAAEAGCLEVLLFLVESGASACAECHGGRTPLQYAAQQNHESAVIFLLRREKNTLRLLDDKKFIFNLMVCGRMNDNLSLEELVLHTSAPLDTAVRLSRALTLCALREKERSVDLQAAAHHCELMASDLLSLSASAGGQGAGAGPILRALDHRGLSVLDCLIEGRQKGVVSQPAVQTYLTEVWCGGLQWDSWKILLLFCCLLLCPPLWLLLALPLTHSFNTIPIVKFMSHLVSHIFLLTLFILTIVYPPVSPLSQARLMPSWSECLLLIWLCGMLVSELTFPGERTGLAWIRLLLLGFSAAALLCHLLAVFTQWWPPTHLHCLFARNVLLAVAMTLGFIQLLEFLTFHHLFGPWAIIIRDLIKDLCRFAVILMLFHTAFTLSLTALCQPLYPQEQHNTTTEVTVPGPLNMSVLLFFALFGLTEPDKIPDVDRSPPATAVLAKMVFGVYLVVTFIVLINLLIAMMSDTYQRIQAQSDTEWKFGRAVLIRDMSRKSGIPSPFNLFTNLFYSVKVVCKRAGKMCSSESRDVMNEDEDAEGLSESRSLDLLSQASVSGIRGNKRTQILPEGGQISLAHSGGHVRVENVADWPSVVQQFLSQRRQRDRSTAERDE

Aurora kinase A = Aurora kinase A (Homo sapiens, UniProt O14965); type: functional;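 note: value from the Navigating the Kinome kinase panel profiling, panel entry STK6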
Aurora kinase B = Aurora kinase B (Homo sapiens, UniProt Q96GD4); type: functional
Chain of Aurora kinase B (Q96GD4 whole entry): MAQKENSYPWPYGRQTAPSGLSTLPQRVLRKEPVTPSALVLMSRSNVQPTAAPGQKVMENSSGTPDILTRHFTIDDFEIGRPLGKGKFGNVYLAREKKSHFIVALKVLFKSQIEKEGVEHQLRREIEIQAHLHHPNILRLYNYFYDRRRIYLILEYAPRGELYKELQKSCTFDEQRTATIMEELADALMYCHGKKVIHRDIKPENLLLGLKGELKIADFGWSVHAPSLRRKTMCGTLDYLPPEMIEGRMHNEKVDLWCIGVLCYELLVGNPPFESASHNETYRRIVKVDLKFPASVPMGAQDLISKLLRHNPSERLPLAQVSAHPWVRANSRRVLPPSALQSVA

[14] = target: Neuropeptides B/W receptor type 1 (Homo sapiens, UniProt P48145); assay: GPR7 antagonist potency, late-stage follow-up, cell-based, fluorescence, dose response, set 5 (AID 588566); type: functional
[15] = target: Melanin-concentrating hormone receptor 1 (Homo sapiens, UniProt Q99705); assay: Late-stage fluorescence-based counterscreen for antagonists of the G-protein coupled receptor 7 (GPR7): cell-based dose response assay to identify antagonists of the melanin-concentrating hormone receptor 1 (MCHR1) Set 5.; type: functional
[16] = THP-1 cell cytotoxicity, dose response, cytotoxicity control, set 3 (AID 504852); type: functional; conditions: Mycobacterium tuberculosis
[17] = Vero cell cytotoxicity, dose response, cytotoxicity control for M. tuberculosis growth inhibitor project, Vero cells, purified and synthesized compounds, set 4 (AID 504854); type: functional; conditions: Mycobacterium tuberculosis
[18] = THP-1 cell cytotoxicity, cytotoxicity control, set 4 (AID 504911); type: functional; conditions: Mycobacterium tuberculosis
[19] = target: Tyrosine-protein kinase Lck (Homo sapiens, UniProt P06239); type: functional;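 note: lck was assayed as one member of a kinase panel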
Chain of Tyrosine-protein kinase Lck (P06239 whole entry): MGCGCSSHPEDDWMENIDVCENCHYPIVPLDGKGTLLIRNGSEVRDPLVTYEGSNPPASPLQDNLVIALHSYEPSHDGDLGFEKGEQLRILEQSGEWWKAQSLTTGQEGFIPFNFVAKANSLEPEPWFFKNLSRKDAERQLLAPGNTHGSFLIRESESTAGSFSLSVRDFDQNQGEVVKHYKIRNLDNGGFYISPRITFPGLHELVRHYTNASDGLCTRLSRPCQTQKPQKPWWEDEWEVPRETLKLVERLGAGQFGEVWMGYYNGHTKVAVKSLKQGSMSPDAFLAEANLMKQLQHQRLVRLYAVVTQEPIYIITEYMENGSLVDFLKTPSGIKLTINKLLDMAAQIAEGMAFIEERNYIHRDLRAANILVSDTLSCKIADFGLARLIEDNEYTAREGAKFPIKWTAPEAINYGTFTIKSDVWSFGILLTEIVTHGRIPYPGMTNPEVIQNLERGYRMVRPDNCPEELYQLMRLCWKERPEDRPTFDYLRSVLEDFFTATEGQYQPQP

[20] = target: Vascular endothelial growth factor receptor 2 (Homo sapiens, UniProt P35968); type: functional
[21] = target: Glycogen synthase kinase-3 beta (Homo sapiens, UniProt P49841); assay: GSK3beta kinase inhibitors, dose response, biochemical, microfluidics, dry powder samples, set 2 (AID 623989); type: functional
Chain of Glycogen synthase kinase-3 beta (P49841 whole entry): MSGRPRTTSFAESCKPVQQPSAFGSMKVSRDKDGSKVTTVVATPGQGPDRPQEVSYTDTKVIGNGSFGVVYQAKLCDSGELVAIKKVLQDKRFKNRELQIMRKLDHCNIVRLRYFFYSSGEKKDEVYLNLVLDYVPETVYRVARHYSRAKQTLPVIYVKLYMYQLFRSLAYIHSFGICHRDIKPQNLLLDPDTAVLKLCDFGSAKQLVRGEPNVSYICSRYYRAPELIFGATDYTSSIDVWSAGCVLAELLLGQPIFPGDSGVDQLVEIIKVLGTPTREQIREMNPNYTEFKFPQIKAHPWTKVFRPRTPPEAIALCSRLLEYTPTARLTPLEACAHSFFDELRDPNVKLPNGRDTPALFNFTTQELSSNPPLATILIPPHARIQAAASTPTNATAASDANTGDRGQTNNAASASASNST

[22] = target: Cell division cycle 7-related protein kinase (Homo sapiens, UniProt O00311); type: functional;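 note: value obtained from a kinome-wide kinase panel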
Chain of Cell division cycle 7-related protein kinase (O00311 whole entry): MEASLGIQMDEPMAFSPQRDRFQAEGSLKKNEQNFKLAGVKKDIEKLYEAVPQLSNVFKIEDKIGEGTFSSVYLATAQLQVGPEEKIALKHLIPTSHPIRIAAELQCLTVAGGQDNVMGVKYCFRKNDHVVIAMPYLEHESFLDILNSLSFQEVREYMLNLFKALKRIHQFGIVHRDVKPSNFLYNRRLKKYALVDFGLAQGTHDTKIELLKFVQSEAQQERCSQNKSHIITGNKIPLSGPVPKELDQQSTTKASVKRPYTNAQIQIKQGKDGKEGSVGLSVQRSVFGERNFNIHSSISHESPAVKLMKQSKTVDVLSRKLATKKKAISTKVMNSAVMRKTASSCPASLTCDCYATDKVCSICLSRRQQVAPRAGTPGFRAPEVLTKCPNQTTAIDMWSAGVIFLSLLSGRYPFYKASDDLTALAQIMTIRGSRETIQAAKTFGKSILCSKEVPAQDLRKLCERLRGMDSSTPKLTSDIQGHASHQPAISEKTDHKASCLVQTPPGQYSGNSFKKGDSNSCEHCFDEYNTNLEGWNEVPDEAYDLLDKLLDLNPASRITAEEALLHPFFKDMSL

[23] = target: G protein-coupled receptor kinase 5 (Homo sapiens, UniProt P34947); assay: Navigating the Kinome. Panel member name: GPRK5; type: functional

Structure (SMILES): CN(C(=O)COC(=O)CNC(=O)c1ccc(Cl)cc1Cl)c1ccccc1
- IC50 [1]: > 64.6 µM (inactive)
- IC50 (Melanocortin receptor 4): > 64.6 µM (inactive)

Structure (SMILES): CC(C)COP(=O)(OCC(C)C)C(Nc1ccccc1)c1ccc(F)cc1 (stereo not given)
- EC50 [2]: 12.2 µM (active)

Structure (SMILES): Cc1noc(C)c1NC(=O)Nc1ccc2c(c1)C(=O)N([C@@H](C)CO)C[C@@H](C)[C@H](CN(C)S(=O)(=O)c1ccc(F)cc1)OCCCC[C@H](C)O2
- AC50 (Erythrocyte): 0.697 µM (active)
- AC50 [3]: 0.697 µM (active)
- AC50 [4]: 0.609 µM (active)
- AC50 [5]: 0.57 µM (active)

Structure (SMILES): Cc1csc2nc(N)nn12
- Ki [6]: 50.1 µM (active)
- Ki [7]: 31.6 µM (active)
- Ki [8]: 31.6 µM (active)
- Ki [9]: 79.4 µM (active)
- Ki [10]: 79.4 µM (active)
- Ki [11]: 79.4 µM (active)
- Ki [12]: 39.8 µM (active)

Structure (SMILES): C=CCn1c(=O)[nH]c2nc3cc(/N=C/N(C)C)c(C)cc3nc2c1=O
- EC50 (Troponin, cardiac muscle): 1.86 µM (active)
- EC50 (Mucolipin-3): 5.89 µM (active)
- EC50 [13]: 1.62 µM (active)
- EC50 (Ion channel NompC): 3.27 µM (active)

Structure (SMILES): Cc1ccc(-c2nc3ccc(Br)cc3c(C(=O)O)c2CC(=O)O)cc1C
- Ki (Aurora kinase A): 0.0631 µM (active)
- Ki (Aurora kinase B): 0.126 µM (active)

Structure (SMILES): CCOc1ccc(Oc2c(Cl)c(N3CCCCC3)nn(Cc3cccc4ccccc34)c2=O)cc1
- IC50 [14]: > 20 µM (inactive)
- IC50 [15]: > 20 µM (inactive)

Structure (SMILES): CNC(=O)CSc1nc2ccccc2c(=O)[nH]1
- CC50 [16]: > 100 µM (active)
- CC50 [17]: > 100 µM (active)
- CC50 [18]: > 100 µM (active)

Structure (SMILES): O=C(Nc1cccc(-c2nc3sccn3c2-c2ccnc(Nc3ccccc3Cl)n2)c1)c1ccccc1
- Ki [19]: 3.98 µM (active)
- Ki [20]: 0.794 µM (active)

Structure (SMILES): Cc1ccc(S(=O)(=O)N2CCN(CC(=O)N/N=C/c3ccccn3)CC2)cc1
- AC50 [21]: 13.7 µM (active)

Structure (SMILES): CC(C)(C)c1cnc(CSc2cnc(NC(=O)C3CCNCC3)s2)o1 [BMS-387032]
- Ki [22]: > 3.98 µM (inactive)
- Ki [23]: > 3.98 µM (inactive)
